Assay results as given in patent US5656591A, “Antimicrobial agents and method for treating products therewith” (Morinaga Milk Industry Co., Ltd., priority 1992, dated 1997).

What was measured:
Escherichia coli 0-111 = test: Test for antimicrobial activity (turbidity): growth inhibiting concentration of antibiotics; assay type: cell-based
Method: (§1) Precultures of test microorganisms to be used in the tests described hereunder were prepared in such a manner that: from the frozen preservation of dispersions of test microorganisms, a loop of the respective strains of the microorganisms were taken out and spread onto TRI PETIT CASE SOYA AGAR MEDIA (by BBL Company), and incubated at 37° C. for 16 hours; the colonies grown on the culture media were scraped by a platinum loop and cultivated in 2.1% Mueller-Hington Broth (by Difco Company) respectively for several hours at 37° C. The resultant microbial cultures at logarithmic phase in 3×10^8 /ml of microbial concentration were used as the precultures.
(§2) The test media to be used in the respective tests were prepared in such a manner that: aqueous solutions in a predetermined concentration of the lactoferrin hydrolysates or the lactoferrin-derived antimicrobial peptides of (1) and (2) in Preparation of Samples (supra), as well as the samples of antibiotics of (3) (supra) were respectively sterilized with filters (by Advantec Company); then a quantity of the resultant solutions of respective samples were selectively added to a quantity of basal medium (Mueller-Hington Broth) prepared in the eventual concentration of 2.1%, thereby combinations of the samples and their concentrations in the respective test media were adjusted as specified in the respective tests.
(§3) Antimicrobial activity was examined as follows: A quantity of the respective precultures prepared in (1) immediately above was diluted with 2.1% Mueller-Hington Broth to result in 2×10^6 /ml of microbial concentration; 100 μl aliquots of the resultant liquid were added to 100 μl aliquots of one of the test media as specified in the respective test; the resultant media were incubated at 37° C. for 16 hours; then the turbidity of the resultant culture broths were measured thereby antimicrobial activity was examined.
(§4) Components in the test and control media and eventual concentrations thereof were adjusted by properly combining 0 mg, 0.4 mg, 1.6 mg and 6.4 mg/ml of lactoferrin hydrolysate of (1) (in Preparation of Samples, supra). or 0 μg, 16 μg, 64 μg, and 256 μg/ml of lactoferrin-derived antimicrobial peptides of (2) (in Preparation of Samples, supra), and 0 μg, 0.01 μg, 0.1 μg, 1 μg, and 10 μg/ml of antibiotics of (3) (supra), then antimicrobial activity of the combined use of the components against Escherichia coli 0-111 and Staphylococcus aureus (JCM2151) as well as growth inhibiting concentrations of the antibiotics were investigated.

[1] = tested on: Staphylococcus aureus JCM2151; test: as above; assay type: cell-based; details: for MIC: Staphylococcus aureus
Method: as §1, §2, §3, §4

[2] = Escherichia coli, 0111, antimicrobial peptide (Seq. ID No. 27) 0 μg/ml
[3] = Escherichia coli, 0111, antimicrobial peptide (Seq. ID No. 27) 16 μg/ml
[4] = Escherichia coli, 0111, antimicrobial peptide (Seq. ID No. 27) 64 μg/ml
[5] = Escherichia coli, 0111, antimicrobial peptide (Seq. ID No. 27) 256 μg/ml
[6] = lactoferrin hydrolysate 0 mg/ml
[7] = lactoferrin hydrolysate 0.4 mg/ml
[8] = lactoferrin hydrolysate 1.6 mg/ml
[9] = lactoferrin hydrolysate 6.4 mg/ml
[10] = JCM2151, antimicrobial peptide (Seq. ID No. 27) 0 μg/ml
[11] = JCM2151, antimicrobial peptide (Seq. ID No. 27) 16 μg/ml
[12] = JCM2151, antimicrobial peptide (Seq. ID No. 27) 64 μg/ml
[13] = JCM2151, antimicrobial peptide (Seq. ID No. 27) 256 μg/ml

Row | SMILES | MIC (Escherichia coli 0-111; [2]) | MIC (Escherichia coli 0-111; [3]) | MIC (Escherichia coli 0-111; [4]) | MIC (Escherichia coli 0-111; [5]) | Growth inhibiting Concentration of antibiotics (Escherichia coli 0-111; [6]) | Growth inhibiting Concentration of antibiotics (Escherichia coli 0-111; [7]) | Growth inhibiting Concentration of antibiotics (Escherichia coli 0-111; [8]) | Growth inhibiting Concentration of antibiotics (Escherichia coli 0-111; [9]) | MIC [1, 10] | MIC [1, 11] | MIC [1, 12] | MIC [1, 13] | Growth inhibiting Concentration of antibiotics [1, 6] | Growth inhibiting Concentration of antibiotics [1, 7] | Growth inhibiting Concentration of antibiotics [1, 8] | Growth inhibiting Concentration of antibiotics [1, 9]
1 | CC1(C)S[C@@H]2[C@H](NC(=O)[C@H](N)c3ccccc3)C(=O)N2[C@H]1C(=O)O [ampicillin] | > 1 µg/mL | 1 µg/mL | 1 µg/mL | 0.1 µg/mL | > 1 µg/mL | 1 µg/mL | 1 µg/mL | 0.01 µg/mL | > 1 µg/mL | 1 µg/mL | 1 µg/mL | 0.1 µg/mL | > 1 µg/mL | 1 µg/mL | 1 µg/mL | 0.1 µg/mL
2 | CC(=O)OCC1=C(C(=O)O)N2C(=O)[C@@H](NC(=O)Cc3cccs3)[C@H]2SC1 [cephalothin] | > 1 µg/mL | > 1 µg/mL | 1 µg/mL | 0.01 µg/mL | > 1 µg/mL | > 1 µg/mL | 1 µg/mL | 0.01 µg/mL | > 1 µg/mL | 1 µg/mL | 1 µg/mL | 0.01 µg/mL | > 1 µg/mL | 1 µg/mL | 1 µg/mL | 0.01 µg/mL
3 | O=C(N[C@H](CO)[C@H](O)c1ccc([N+](=O)[O-])cc1)C(Cl)Cl [chloramphenicol] | > 1 µg/mL | > 1 µg/mL | 1 µg/mL | 0.1 µg/mL | > 1 µg/mL | > 1 µg/mL | > 1 µg/mL | 0.1 µg/mL | > 1 µg/mL | > 1 µg/mL | 1 µg/mL | 1 µg/mL | > 1 µg/mL | > 1 µg/mL | > 1 µg/mL | 1 µg/mL
4 | CC[C@H]1OC(=O)[C@H](C)[C@@H](O[C@H]2C[C@@](C)(OC)[C@@H](O)[C@H](C)O2)[C@H](C)[C@@H](O[C@@H]2O[C@H](C)C[C@H](N(C)C)[C@H]2O)[C@](C)(O)C[C@@H](C)C(=O)[C@H](C)[C@@H](O)[C@]1(C)O [erythromycin] | > 1 µg/mL | 1 µg/mL | 1 µg/mL | 0.01 µg/mL | > 1 µg/mL | 1 µg/mL | 1 µg/mL | 0.1 µg/mL | > 1 µg/mL | 1 µg/mL | 1 µg/mL | 0.01 µg/mL | > 1 µg/mL | 1 µg/mL | 1 µg/mL | 0.01 µg/mL
